The values below come from patent US20200306204A1, “TRANSDERMAL DELIVERY SYSTEM COMPRISING BUPRENORPHINE” (LTS Lohmann Therapie-Systeme AG, priority 2011, published 2020).

This series in a line: Solubility.

As to `CO[C@]12CC[C@@]3(C[C@@H]1[C@](C)(O)C(C)(C)C)[C@H]1Cc4ccc(O)c5c4[C@@]3(CCN1CC1CC1)[C@H]2O5` [Buprenorphine, (5R,6R,7R,9R,13S,14S)-17-Cyclopropylmethyl-7-[(S)-3,3-dimethyl-2-hydroxybutan-2-yl]-6-methoxy-4,5-epoxy-6,14-ethanomorphinan-3-ol], the Solubility in polysiloxanes entry is on record as “extremely low solubility”.
